According to publication PMC6081404, “Active Transport of Peptides Across the Intact Human Tympanic Membrane” (Scientific Reports, 2018):

System: rat TM fragment
Test: Integrity of the TM fragment and seal, trypan-blue dye transit into the lower chamber
Type: in vitro ADME
Details: 0.5% trypan-blue in upper chamber, immediately and after 1–4 hours, visual and absorbance at 590 nm
From the text: Rat TMs were interposed between the two chambers.

Cc1cc(-c2ccc(/N=N/c3c(S(=O)(=O)O)cc4cc(S(=O)(=O)O)cc(N)c4c3O)c(C)c2)ccc1/N=N/c1c(S(=O)(=O)O)cc2cc(S(=O)(=O)O)cc(N)c2c1O [trypan-blue]
dye transit into the lower chamber across an intact TM fragment: excluded from the lower chamber
